“And” between values parts separate entries of the source, which are not always exact repeats. Equal entries are not always repeated. Where two headings read alike, the source gives them in different places. Marks after values point to notes of the source that are not given here.
Key:
Mäusen = conditions: mouse, in vivo; cited from earlier work
Ratte = conditions: rat, cited from earlier work
[1] = test system: Globodera rostochinesis und Globodera pallida; experiment: Nematicidal effect: lethal concentrations on second-stage juveniles, 24 h (Example 1); conditions: for LC50: read-out: CL50; for EC100: read-out: CL100
[2] = Acute toxicity in male Albino-Swiss mouse, intraperitoneal (Example 3); format: in vivo, Albino-Swiss Maus; conditions: mouse, in vivo, ip, male Albino-Swiss mouse, intraperitoneal, 24 h, estimated from regression curve; read-out: DL50
Source text: (§1) Man studierte die Toxizität bei einer männlichen ,Albino-Swiss" Maus mittels der intraperitonealen (i.p.) Anwendung variabler Dosen von trans-1,3-Diphenyl-2-propen-1-on bei 10 […] zur Behandlung. Man wertete die Nummer der toten Tiere nach 24 Stunden der Anwendung und berechnete die Gleichung der Regressionskurve, die die Resultate des Experimentes besser beschreibt. Ausgehend von den Regressionsgleichungen schätzte man dieDL50 und DL0 (Dosen des trans-1,3-Diphenyl-2-propen-1-on ohne offensichtlichen Effekt) bei 24 Stunden. Ebenso schätzte man das Potential der Toxizität (pT) (Luckey und Venugopal, 1977. J. Toxicol. & Envirn. Health. 2:633.)
(§2) Das DL50 schätzte man bei 1494 mg/Kg bei 24 Stunden (Figur 4). Ausgehend von diesen Daten deduzierte man das das trans-1,3-Diphenyl-2-propen-1-on eine leicht toxische Substanz ist mit DL50 schwankend zwischen 0,5 und 5 g/kg (Loomis, 1982. Ed acribia. Zaragoza, 33-43). Der letale Effekt null für trans-1,3-Diphenyl-2-propen-1-on bei 24 Stunden war DL0=653,85 mg/kg.
(§3) Das toxische Potential schätzte man auf pT50=2,14.

Albino-Swiss Maus = experiment: as above; format: in vivo
Source text: as §1, §2, §3

Meloidogyne javanica = experiment: Field effect in a banana plantation greenhouse infested with nematodes (1.2); format: in vivo; conditions: 0,05 mmol solution, 3000 l with irrigation water; soil samples three days later
Source text: Man bereitete 3000 Liter einer Lösung von trans-1,3-Diphenyl-2-propen-1-on 0,05 mmol und verwendete diese am Boden mit dem Wasser der Bewässerung in einem Gewächshaus der Bananenanpflanzung, das von dem phytoparasitischen Nematoden Meloidogyne javanica befallen war. Drei Tage später nahm man Proben des Bodens der behandelten Parzelle und stellte fest, das in den Extraktionen von Nematoden mittels der Methode der Zentrifugation auf Zucker (Extraktion von sowohl lebenden und toten Nematoden) lediglich 25% lebende Larven der M. javanica zu finden waren, sodaß die Behandlung mit trans-1,3-Diphenyl-2-propen-1-on eine Näherungsweiseeffektivität von 75% hatte.

M. javanica = experiment: Infestation index of tomato roots (1.3); format: in vivo; conditions: index 0 to 5; tomato plants in soil treated as in experiment 1.2; untreated soil ima=4,33
Source text: Man pflanzte Tomatenpflanzen in einer kommerziell erhältlichen Auswahl, anfällig für M. javanica, um die Pflanzen der Bananenpflanzung, die mit trans-1,3-Diphenyl-2-propen-1-on des Experimentes 1.2 behandelt wurde, wie auch um solche, die nicht behandelt wurden. Der Index des Befalles der Wurzeln der Tomate gab uns eine näherungsweise Vorstellung des Niveaus der Infektion mit Nematoden der Wurzelknoten im Feld (Bridge & Page, 1980. Tropical Pest Management, 26:296-298). Zur Klassifikation der angegriffe der Nematoden auf die Wurzeln der Tomate etablierte man einen Index des Befalles von 0 bis 5. Die Pflanzen, die in dem mit trans-1,3-Diphenyl-2-propen-1-on behandeltem Boden wuchsen, erhielten einen mittleren Befallindex (ima) der deutlich kleiner war (ima=3) als derjenige der Pflanzen, die im Boden ohne Behandlung (ima=4,33) wuchsen.

[3] = test system: Globodera rostochienensis und Globodera pallida; experiment: Nematostatic effect: inhibition of hatching from cysts (Example 2); format: in vivo; conditions: for activity at 10 µM: im, 360 h, 0,01 mmol, read-out: Bildung von Einschlußkörpern im Verhältnis zur Bekämpfung
Source text: Man realisierte ein Experiment, um den Effekt von trans-1,3-Diphenyl-2-propen-1-on bei der Bildung von Einschlußkörpern der Globodera spp. zu sehen. Man setzte 10 Zysten einer gemischten Population der Spezie Globodera rostochienensis und Globodera pallida in Violen mit 2cc einer Lösung, die 10 mmol ZnSO4 als Induktionsmittel der Bildung von Einschlußkörpern enthielt, und eine variable Konzentration von trans-1,3-Diphenyl-2-propen-1-on (0,05, 0,04, 0,03, 0,01 und 0,005 mmol). Die in den vier Replikatoren und in den Bekämpfungen entwickelten Jungen zählte man periodisch während 15 Tagen. Auf der Basis der Regressionskurve, die die Resultate des Experimentes besser beschreibt, schätzte man, was die Anwesenheit von nur 0,007 mmol von trans-1,3-Diphenyl-2-propen-1-on während 15 Tagen ausreichend war, um die Bildung von Einschlußkörpern auf die Hälfte derjenigen der Bekämpfung zu reduzieren.
Nachfolgend und mit dem Ziel zu sehen, ob die Hinderung der Bildung von Einschlußkörpern irreversibel sei, entfernt man die Zysten, wäscht man mit destilliertem Wasser und setzt sie in neue Violen mit 2cc einer Lösung, die lediglich das Induktionsmittel der Bildung von Einschlußkörpern (10 mmol ZnSO4) enthielt. Man fand heraus, das der Bildung von Einschlußkörpern hindernde Effekt des trans-1,3-Diphenyl-2-propen-1-on bei einer Dosis über 0,03 mmol unumkehrbar ist. Die bei der Dosis von 0,01 mmol auftretende Bildung von Einschlußkörpern war deutlich geringer als die der Bekämpfung (37,28%) in den ersten 15 Tagen und praktisch null ( es entwickelten sich lediglich 4,6% im Verhältnis zur Bekämpfung) nach der Herausnahme des trans-1,3-Diphenyl-2-propen-1-on bei 15 Tagen seit Beginn des Experimentes (Figur 3).

[4] = Brine shrimp assay (Example 4); conditions: in vivo, Artemia salina, read-out: CL50
Source text: Die Analyse der Toxizität einer Substanz auf eine Salzgarnele Artemia salina (Brine shrimp) vermitteln eine angenäherte Vorstellung der biologischen Aktivität eines Produktes und insbesondere seiner Zytotoxizität.
Das Experiment wurde durchgeführt nach der Methode, die durch Mayer et al., 1982, beschrieben wurde ( Planta Med. 45:31-34), wobei das CL50 bei 24 Stunden für die Garnelen berechnet wird. Man benutzte vier Replikatoren, jeweils mit einer der Konzentrationen von trans-1,3-Diphenyl-2-propen-1-on (0,1, 0,01, 0,001 und 0,0001 mmol) und adäquate Bekämpfungen. Das geschätzte CL50 lag bei 0,0247 mmol, Dosen, die annäherungsweise mit denjenigen übereinstimmen, die für die Larven des zweiten Stadiums der Nematoden der Zyste berechnet wurden (CL50=0,033).

[5] = test system: Vinca major, Adiantum capillus-veneris, Begonia rex, Hedera helix; experiment: Phytotoxicity: development of laboratory plants (5.2); format: in vivo; conditions: 0,05 mmol with irrigation at field capacity, 50 days, 25°C, 80% relative humidity
Experimental: Die Phytotoxizität der trans-1,3-Diphenyl-2-propen-1-on studierte man im Laboratorium unter Benutzung von Vinca major Pflanzen (8 Pflanzen), Adiantum capillus-veneris (2 Pflanzen), Begonia rex (2 Pflanzen) und Hedera helix (2 Pflanzen), die man an Ort und Stelle zog und in einer Kammer bei 25°C, 80% relativer Luftfeuchtigkeit und 13 Stunden Licht pro Tag kultivierte. Die Hälfte der Pflanzen behandelte man mit einer Dosis von trans-1,3-Diphenyl-2-propen-1-on von 0,05 mmol, das man auf eine Bewässerung mit Feldkapazität anwendete.

[6] = test system: Musa spp. cv Cavendish ,,Gran enano"; experiment: Phytotoxicity: banana plants (5.2); format: in vivo
Source text: Man studierte gleitherweise die Phytotoxizität von trans-1,3-Diphenyl-2-[…] auf Pflanzen der Bananenpflanzung (Musa spp. cv Cavendish ,Gran enano"). Bananenpflanzungen, die drei Monate alt waren und aus einer Kultivierung in vitro stammten, pflanzte man in Holzkübel von 5 l Kapazität mit einem Substrat von 1:1:1 (Torf:Sand:Kies) und ordnete diese zufällig in einem Gewächshaus an. Für dieses Experiment ordnete man 10 Replikatoren zur Behandlung und 5 zur Bekämpfung an. […]

[7] = tomato, in vivo
[8] = test system: Kresse (Nasturtium officinale); experiment: Phytotoxicity: germination and elongation of cress seeds (5.1); conditions: for activity at 50 µM / activity at 500 µM: Nasturtium officinale, 168 h
[9] = test system: Tomate (Lycopersicum esculentum var. marglobe); experiment: Phytotoxicity: germination and elongation of tomato seeds (5.1); conditions: tomato, 0,05 and 0,5 mmol, statement in words
[10] = read-out: TE: Rate der Verlängerung

CNC(=O)O/N=C/C(C)(C)SC [Aldicarb]
DL50 (Mäusen): 0,3 mg/Kg

CNC(=O)Oc1cccc2c1OC(C)(C)C2 [Carbofurano]
DL50 (Mäusen): 2 mg/kg

CN1CSC(=S)N(C)C1 [Dazomet]
DL50 (Mäusen): 180 mg/kg

CCOP(=O)(NC(C)C)Oc1ccc(SC)c(C)c1 (centres unmarked) [Fenamifos]
DL50 (Mäusen): 22,7 mg/Kg

CNC(=O)ON=C(SC)C(=O)N(C)C [Oxamilo]
DL50 (Mäusen): 2,3 mg/Kg

CC(=O)C#Cc1ccccc1 [Verbindung 1, 4-Phenyl-3-butin-2-on]
toxischer Effekt (Ratte; 56 mg/kg intravenous): keinen toxischen Effekt
LC50 [1]: 3.7 µM and 0.53 µg/mL
EC100 [1]: < 50 µM and < 7.21 µg/mL

C=CSc1ccccc1 [Verbindung 2, Phenylvinylsulfid]
LC50 [1]: 21 µM and 2.86 µg/mL

O=C/C=C/c1ccccc1 [Verbindung 3, trans-Zimtaldehyd]
LC50 [1]: 24 µM and 3.17 µg/mL
EC100 [1]: < 1000 µM and < 132 µg/mL

C=C[S+]([O-])c1ccccc1 (centres unmarked) [Verbindung 4, Phenylvinylsulfoxid]
LC50 [1]: 111 µM and 16.9 µg/mL
EC100 [1]: < 1000 µM and < 152 µg/mL

CC(=O)/C=C/c1ccccc1 [Verbindung 5, trans-4-Phenyl-3-buten-2-on]
LD50 (Ratte; intraperitoneal): 1210 mg/kg
LD50 (Ratte; intravenous): 112 mg/kg
LC50 [1]: 168 µM and 24.6 µg/mL
EC100 [1]: < 1000 µM and < 146 µg/mL

O=C1CCC(c2ccccc2)O1 (centres unmarked) [Verbindung 6, γ-Phenyl-γ-butirolacton]
LC50 [1]: 282 µM and 45.7 µg/mL
EC100 [1]: < 1000 µM and < 162 µg/mL

O=C(Cc1ccccc1)Cc1ccccc1 [Verbindung 7, 1,3-Diphenylaceton]
LC50 [1]: 961 µM and 202 µg/mL

O=C(/C=C/c1ccccc1)c1ccccc1 [Verbindung 8, trans-1,3-diphenyl-2-propen-1-on]
LD50 at 24 h [2]: 1490 mg/kg
toxisches Potential pT50 (Albino-Swiss Maus; estimated from the mouse i.p. data (Luckey and Venugopal)): 2,14
DL0 (letaler Effekt null) (Albino-Swiss Maus; male Albino-Swiss mouse, intraperitoneal, 24 h): 653,85 mg/kg
DL50 (Albino-Swiss Maus; male Albino-Swiss mouse, intraperitoneal, 24 h, estimated from regression curve, 1440 min): 1492*** mg/Kg
Näherungsweiseeffektivität (Meloidogyne javanica): ~75%
lebende Larven der M. javanica (Meloidogyne javanica): 25%
mittlerer Befallindex (ima) (M. javanica): 3
IC50 ([3]; Globodera pallida, 360 h, 15 days exposure, 10 mmol ZnSO4 as hatching inducer, hatching reduced to half of control, read-out: Bildung von Einschlußkörpern hemmende Dosis 50 (DIE50)): 7 µM
activity at 10 µM ([3]; Globodera pallida, after removal of the compound at day 15): 4.6%
activity at 10 µM ([3]; Globodera pallida, first 15 days): 37.3%
Bildung von Einschlußkörpern ([3]; concentrations of 0,03 mmol and more, 15 days): hörte die Bildung von Einschlußkörpern völlig auf
Reversibility of the hatching-inhibiting effect ([3]; dose above 0,03 mmol, cysts washed and placed in 10 mmol ZnSO4 only): unumkehrbar
LC50 at 24 h [4]: 24.7 µM
Wachstum und allgemeiner Aspekt der Pflanzen [5]: keine Unterschiede im Wachstum oder im allgemeinen Aspekt
Effekt auf Pflanzen der Bananenpflanzung ([6]; 0,05 and 0,5 mmol with irrigation water, after 3 months, greenhouse pots): keinen Effekt
Effekt auf Pflanzen der Bananenpflanzung ([6]; after 6 months, treated banana plants in the greenhouse of Example 1.2): Ebensowenig stellt man einen Effekt
activity at 168 h, 50 µM ([7]; TE: Rate der Verlängerung): 105%
activity at 168 h, 500 µM ([7]; TE: Rate der Verlängerung): 89.2%
activity at 168 h, 50 µM ([7]; TG: Rate der Keimung): 103%
activity at 168 h, 500 µM ([7]; TG: Rate der Keimung): 100%
activity at 50 µM [8, 10]: 97.9%
activity at 500 µM [8, 10]: 18.4%
activity at 50 µM ([8]; read-out: TG: Rate der Keimung): 78.4%
activity at 500 µM ([8]; read-out: TG: Rate der Keimung): 86.5%
TE: Rate der Verlängerung ([8]; cress primary root, 0,5 mmol, 7 days, 25°C, percent of control): deutliche Verminderung der primären Wurzel
TG: Rate der Keimung ([8]; cress, 0,5 mmol, 7 days, 25°C, percent of control): leichte Verminderung der Keimung
Rate der Keimung [9]: variierte bei der Tomate nicht
Verlängerungsrate [9]: variierte bei der Tomate nicht signifikant
LC50 [1]: 33 µM and 6.86 µg/mL
EC100 [1]: < 50 µM and < 10.4 µg/mL
